Here are results for two compounds from PMC9250511, “Metabolomics-guided discovery of cytochrome P450s involved in pseudotropine-dependent biosynthesis of modified tropane alkaloids” (Nature Communications, 2022).

One experiment deals with T1, AbP450-5021 (Atropa belladonna, UniProt A0A3G4RHX1).
T1 construct: full-length ORF in pEAQ-HT-DEST1, transiently produced in Nicotiana benthamiana leaves
Put plainly: transient expression in N. benthamiana leaves, UHPLC/HRMS of products. It counts as cell-based. Conditions: 1 mM substrate hydrochloride infiltrated in leaf, 2 days.

The target in the next experiment is T2, AbP450-116623 (Atropa belladonna, UniProt A0A3G4RHW9).
T2 construct: full-length ORF in pEAQ-HT-DEST1, transiently produced in Nicotiana benthamiana leaves
T2 sequence (A0A3G4RHW9 entry or part of it): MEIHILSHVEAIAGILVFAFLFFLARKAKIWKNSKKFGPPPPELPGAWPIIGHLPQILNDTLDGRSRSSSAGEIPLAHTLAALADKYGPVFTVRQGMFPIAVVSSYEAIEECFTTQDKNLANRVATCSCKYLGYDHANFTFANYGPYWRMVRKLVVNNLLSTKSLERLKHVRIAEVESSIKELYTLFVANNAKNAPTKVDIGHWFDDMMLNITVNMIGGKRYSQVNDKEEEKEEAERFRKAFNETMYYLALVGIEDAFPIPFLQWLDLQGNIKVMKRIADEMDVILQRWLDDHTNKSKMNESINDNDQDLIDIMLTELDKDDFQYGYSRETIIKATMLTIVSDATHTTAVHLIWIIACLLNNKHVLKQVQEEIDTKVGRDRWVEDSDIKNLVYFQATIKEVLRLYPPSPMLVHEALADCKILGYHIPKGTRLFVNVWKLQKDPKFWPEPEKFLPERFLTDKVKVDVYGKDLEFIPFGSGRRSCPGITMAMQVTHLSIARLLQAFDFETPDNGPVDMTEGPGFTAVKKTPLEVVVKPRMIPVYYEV
The experiment is described as above. It counts as cell-based. The conditions noted are these: 1 mM substrate hydrochloride infiltrated in leaf, 2 days; ring-hydroxylation at carbon adjacent to ring nitrogen (isomer 1).

T1 sequence (A0A3G4RHX1 entry or part of it): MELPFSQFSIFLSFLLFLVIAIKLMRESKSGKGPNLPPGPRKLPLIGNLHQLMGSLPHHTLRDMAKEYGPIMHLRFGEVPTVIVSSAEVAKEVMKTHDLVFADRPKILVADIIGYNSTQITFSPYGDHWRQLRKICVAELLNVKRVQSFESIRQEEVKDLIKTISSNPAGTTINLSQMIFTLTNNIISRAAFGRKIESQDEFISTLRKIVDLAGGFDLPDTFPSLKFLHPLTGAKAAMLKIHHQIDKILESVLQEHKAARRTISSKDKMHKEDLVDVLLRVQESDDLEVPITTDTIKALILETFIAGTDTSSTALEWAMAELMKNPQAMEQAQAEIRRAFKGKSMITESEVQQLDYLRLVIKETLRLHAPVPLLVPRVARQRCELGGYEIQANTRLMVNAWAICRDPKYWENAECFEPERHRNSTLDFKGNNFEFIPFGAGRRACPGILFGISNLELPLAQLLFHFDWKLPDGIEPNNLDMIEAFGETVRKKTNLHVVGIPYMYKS

Turning to `C/C=C(\C)C(=O)OC1CC2CCC(C1)N2C` (stereo not drawn) [compound 6, tigloyl pseudotropine], the “transient expression in N. benthamiana leaves, UHPLC/HRMS of products” value on AbP450-5021 (N-demethylation to tigloyl norpseudotropine, then ring-hydroxylation (isomer 2)) is on record as “producing AbP450-5021 alone using either tigloyl pseudotropine or tigloyl norpseudotropine as substrate”.

Take `C/C=C(\C)C(=O)O[C@@H]1C[C@H]2CC[C@@H](C1)N2` [compound 21, tigloyl norpseudotropine]: the “transient expression in N. benthamiana leaves, UHPLC/HRMS of products” value on AbP450-116623 was “Assays with AbP450-116623 alone and N-demethylated tigloyl norpseudotropine as substrate yielded tigloyl hydroxynorpseudotropine”; on AbP450-5021 (ring-hydroxylation next to the esterified carbon (isomer 2)), “producing AbP450-5021 alone using either tigloyl pseudotropine or tigloyl norpseudotropine as substrate”.
